Assays:
HSV-1 (strain RD) = assay: Virucidal effect on HSV-1: virus incubated 2 h with compound, residual titer by CPE in Vero cells; assay type: cell-based, herpes simplex virus type 1; details: for IC50: Human alphaherpesvirus 1, Vero, HSV-1
Protocol: Next, the virucidal effect of the drugs on HSV-1 in PBS and Pluronic F-127 was studied, in accordance with CC50 (Figure 5). The virucidal activity tests were performed by incubating HSV-1 with different concentrations of 3a,b and TMePyP for 2 h at a temperature of 36.8 °C and 5% CO2. Untreated viral suspensions were used as a control. Then, samples were added to a Vero culture seeded in 96-well plates, and the residual virus content was evaluated by developing a cytopathic effect on the fourth day of cultivation.
HSV-1 at tenfold dilutions DMEM-1% FCS (900 µL) was incubated with different concentration of the compounds (100 µL) at the final concentration ranging from 3 µM to 100 µM in DMEM-1% FCS or without of compound, each sample in volume 1 mL, for 2 h at 36.8 °C in 5% CO2 atmosphere. After treatment, the samples were applied to the Vero cell (the day before, cells were seeded at the rate of 15,000 cells/well in […] DMEM-5% FCS in 96-well plates) monolayers in 96-well plates (100 µL/well), and, after 4 days of cultivation at 36.8 °C in 5% CO2 atmosphere, titers were calculated based on the development of CPE, and the inhibitory activity of each compounds was calculated in relation to the control (HSV-1 without compounds). Data are reported as means of three independent assays, each run in triplicate.
Figure 5 Virucidal activity of 3a (a), 3b (b), TMePyP (c) dissolved in PBS and Pluronic F-127 regarding HSV-1. The results are presented as the virus titer percentage, with the porphyrin regarding the virus titer in control, which was taken as 100%. Each point represents the mean ± deviation of three experiments with three replicates.
Fig. 15S. Virucidal activity of 3a (A), 3b (B), TMePyP (C) compounds dissolved in PBS and Pluronic F127 regarding to HSV-1. HSV-1 at tenfold dilutions DMEM-1%FCS was incubated with different concentration of the compounds ranging from 3 µM/L to 100 µM/L in DMEM-1% FCS or without of compound , each sample in volume 1mL, for 2 hours at 36.8°C in 5% CO 2 atmosphere. After treatment the samples were applied to the Vero DMEM-5%FCS in 96 wells plates) monolayers in 96 wells plates (100 µL/well). and after 4 days of cultivation at 36.8 °C in 5% CO 2 atmosphere titers were calculated based on the development of CPE and the inhibi-tory activity of each compounds was calculated in relation to the control (HSV -1 without compounds). Data are reported as means of three independent assays, each run in tripli cate. The results were processed using the GraphPad Prism 5 program. […]

[1] = test system: HSV-1 replication in Vero cells; assay: Influence of the compounds on HSV-1 virus yield during infection of Vero cells (early/late replication stages); assay type: cell-based, herpes simplex virus type 1; details: for stages of HSV-1 replication affected: Vero cells, MOI 0.1; for effect on HSV-1 replication: simultaneous addition with the virus
Protocol: Porphyrin’s antiviral action was then determined in terms of their effect on the HSV-1 replication stages in Vero cells. A two-part experiment was conducted to evaluate the influence of the obtained compounds on the early or late stages of replication (Figure 6). First, the effect of porphyrins on the initial stages of reproduction was estimated. Thus, HSV-1 at MOI 0.1 was adsorbed on Vero cells in a medium containing the studied porphyrin; then the cell monolayers were washed from the nonadsorbed virus, and porphyrins of the same concentration were introduced into the plate (1) (Vero Cells + HSV-1 + Porphyrin, left arrow. Figure 6), or the cell monolayers were washed from the nonadsorbed virus, and the medium without the test compound was introduced into the cell monolayers microwell plate (2) (Porphyrin + HSV-1 + Porphyrin medium, right arrow. Figure 6).
The influence of porphyrin antiviral activity on the HSV-1 postadsorption stages was simultaneously evaluated in this experiment. The studied compounds were introduced after HSV-1 adsorption on Vero cells and washing of nonadsorbed virus particles (3) (Vero Cells +HSV-1, left arrow. Figure 6) or, after virus adsorption and nonadsorbed virus particles washing, only the medium was introduced (control of virus reproduction) (4) (Vero Cells +HSV-1, right arrow. Figure 6). After the formation of a pronounced cytopathic effect of the virus in control cultures (48 h of cultivation), the virus infection activity of all the samples was determined by titration in a Vero cell culture (Figure 7).
Four variants were used to test compound efficiency in controlling development of infection in Vero cells. The Vero cells were seeded in 24-well plate in 1 mL of DMEM-5% FCS. (1) The cell monolayers were treated simultaneously with HSV-1 (MOI 0.1) in DMEM-1% FCS (900 µL) and investigated compounds in DMEM-1% FCS (100 µL) for 2 h at 36.8 °C in 5% CO2 atmosphere; then the cell monolayers were washed from the nonadsorbed virus and treated with 900 µL of DMEM-1%FCS and the same concentrations of compounds (100 µL). (2) The cell monolayers were treated simultaneously with HSV-1 (MOI 0.1) DMEM-1% FCS (900 µL) and compounds DMEM-1%FCS (100 µL) for 2 h at 36.8 °C in 5% CO2 atmosphere, and then the cell monolayers were washed from the nonadsorbed virus, after which only DMEM-1% FCS (1 mL) was added. (3) The cell monolayers were treated with HSV-1 (MOI 0.1) DMEM-1% FCS (900 µL) and DMEM-1% FCS (100 µL) for 2 h at 36.8 °C in 5% CO2 atmosphere and washed from the nonadsorbed virus; then DMEM-1% FCS (900 µL) and the same compounds in DMEM-1% FCS (100 µL) were added. (4) Control: the cell monolayers were treated with HSV-1 (MOI 0.1) in DMEM-1% FCS (900 µL), and DMEM-1% FCS (100 µL) was added for 2 h at 36.8 °C in 5% CO2 atmosphere and washed from the nonadsorbed virus, and then DMEM-1% FCS (1 mL) was added. In all variants, the treated cells were then incubated at 36.8 °C in 5% CO2 atmosphere.
After the development of a cytopathic effect in control cultures (HSV-1 + medium, 48 h), the virus content was determined in samples of the culture medium by applying ten-fold dilutions (100 µL) on a monolayers of Vero cells in wells of 96-well plates. After three days, virus titers were counted, and the percentage of inhibition regarding the titer of the virus in the control, which was taken as 100%, was determined. The results were presented as the average of three experiments of four replays.
Figure 7 Inhibitory effect of porphyrins on the HSV-1 replication. The Vero cells were treated with compounds 3a (100 µM) (a), 3b (12 µM and 6 µM) (b) and TMePyP (50 µM, 25 µM and 12.5 µM) (c) simultaneously with HSV-1 (MI 0.1) or after HSV-1 (MI 0.1) adsorption. The results are presented as the percentage of the virus titer with porphyrin relative to its titer in the control (without porphyrin), which was taken as 100%. Each bar represents the mean ± deviation. […]

[2] = Pluronic F-127 (F127) micellar formulation

SMILES	IC50 (HSV-1 (strain RD); [2])	IC50 (HSV-1 (strain RD); dissolved in PBS)	stages of HSV-1 replication affected [1]	effect on HSV-1 reproduction ([1]; introduced at the stage of virus adsorption, 12 μM)	effect on HSV-1 replication ([1]; 25 μM)	effect on HSV-1 replication ([1]; 50 μM)	concentration showing a virucidal effect (HSV-1 (strain RD); PBS and Pluronic F-127, only at the maximum concentration)	effect on HSV-1 reproduction ([1]; compound only at the cell infection stage (3a + HSV-1 + media), 100 µM, MOI 0.1, 48 h)	effect on HSV-1 reproduction ([1]; compound with virus and after washing (3a + HSV-1 + 3a) or post-infection (HSV-1 + 3a), 100 µM, MOI 0.1, 48 h)
C[n+]1ccc(-c2c3nc(c(-c4cc[n+](C)cc4)c4ccc([nH]4)c(-c4cc[n+](C)cc4)c4nc(c(-c5cc[n+](C)cc5)c5ccc2[nH]5)C=C4)C=C3)cc1 [TMePyP, 5,10,15,20-tetrakis(1-methyl-4-pyridinio)porphyrin tetraiodide, reference compound]	13.3 µM	2.3 µM	affected both the initial and late stages of virus replication	did not suppress the HSV-1 reproduction	completely suppressed its replication	completely suppressed its replication	–	–	–
O=C(CC[n+]1ccccc1)Oc1ccc(-c2c3nc(c(-c4ccc(OC(=O)CC[n+]5ccccc5)cc4)c4ccc([nH]4)c(-c4ccc(OC(=O)CC[n+]5ccccc5)cc4)c4nc(c(-c5ccc(OC(=O)CC[n+]6ccccc6)cc5)c5ccc2[nH]5)C=C4)C=C3)cc1 [3a]	99.8 µM	–	acts on both the initial and postadsorption stages of virus replication	–	–	–	100 µM	did not significantly suppress the reproduction of the virus	suppressed the reproduction of the virus

Reference: publication PMC7999199, “Novel Cationic Meso-Arylporphyrins and Their Antiviral Activity against HSV-1” (Pharmaceuticals, 2021)
